# “And” between values parts separate entries of the source, which are not always exact repeats. Equal values may be shown once. “Also recorded” adds a separate entry of the source. Where a SMILES comes first, the peptide text is derived from it. [ ]: non-standard residue; d: D form. The star is where a group is joined. Hexanoyl = CCCCCC(=O)*; Ahx = NCCCCCC(=O)O
# Legend:
# aged rats = assay: Morris water maze, aged rat model; assay type: in vivo; conditions: aged rats of mixed sex; oral Dihexa 2 mg/kg/day, 8 days
# Method: Swim speed was determined from these values.
# [1] = Metabolic stability in rat serum; assay type: in vitro ADME
# human HGF = target: T1, human HGF (Homo sapiens, UniProt P14210); assay: HGF dimerization; assay type: biochemical; conditions: 30 minutes in the presence of heparin; N=6
# T1 construct: purchased R&D Systems (Minneapolis, Minn.)
# Method: HGF dimerization was assessed using PAGE followed by silver staining (Kawas et al., 2011). Human HGF at a concentration of 0.08 ng/μl with or without 6-AH analogs was incubated with heparin at a final concentration of 5 μg/ml. Loading buffer was then added to each sample and the mixture separated by native PAGE using gradient Criterion XT precast gels (4-12% Bis-Tris; Biorad Laboratories, Hercules, Calif.). Next the gel was silver stained for the detection of the HGF monomers and dimers. Bands were quantitated from digital images using a UVP phosphoimager (Upland, Calif.).
# [2] = Brain distribution of 3H-Dihexa after carotid infusion; assay type: in vivo, rat
# Method: FIG. 44. […] Rats fitted with a carotid cannula were anesthetized and infused with 0.5 ml of isotonic saline containing 10 μCi of 3H-Dihexa and 2 μCi ^14C-Inulin, a vascular marker. Thirty minutes after infusion rats were decapitated, the brains removed, and various brain regions dissected. The tissues were then weighed and solubilized with NCS and 10 ml of scintillation was added. Samples were counted with a scintillation counter using two different windows to quantitate both ^3H and ^14C counts. ^3H/^14Cs were determined so that blood derived Dihexa contamination of tissues could be determined. The average ^3H/^14C from blood was 1687.
# [3] = Dihexa plasma levels after IV infusion; assay type: in vivo, rat
# Method: FIG. 46. Dihexa plasma levels after intravascular (IV) infusion. Dihexa was administered to adult male Sprague Dawley rats at 10 mg/kg. Plasma sample were collected and analyzed by HPLC-MS. Plasma data were modeled by non-compartmental analysis using WinNonlin® software.
# Blood stability studies = conditions: not shown
# scopolamine treated rats = assay: Morris water maze, scopolamine amnesia model; conditions: scopolamine ICV
# hippocampal neurons = assay: Immunocytochemistry: correlation of spines with synaptic markers; assay type: cell-based, rat; conditions: HGF 10 ng/ml
# T1 sequence (P14210 32-728): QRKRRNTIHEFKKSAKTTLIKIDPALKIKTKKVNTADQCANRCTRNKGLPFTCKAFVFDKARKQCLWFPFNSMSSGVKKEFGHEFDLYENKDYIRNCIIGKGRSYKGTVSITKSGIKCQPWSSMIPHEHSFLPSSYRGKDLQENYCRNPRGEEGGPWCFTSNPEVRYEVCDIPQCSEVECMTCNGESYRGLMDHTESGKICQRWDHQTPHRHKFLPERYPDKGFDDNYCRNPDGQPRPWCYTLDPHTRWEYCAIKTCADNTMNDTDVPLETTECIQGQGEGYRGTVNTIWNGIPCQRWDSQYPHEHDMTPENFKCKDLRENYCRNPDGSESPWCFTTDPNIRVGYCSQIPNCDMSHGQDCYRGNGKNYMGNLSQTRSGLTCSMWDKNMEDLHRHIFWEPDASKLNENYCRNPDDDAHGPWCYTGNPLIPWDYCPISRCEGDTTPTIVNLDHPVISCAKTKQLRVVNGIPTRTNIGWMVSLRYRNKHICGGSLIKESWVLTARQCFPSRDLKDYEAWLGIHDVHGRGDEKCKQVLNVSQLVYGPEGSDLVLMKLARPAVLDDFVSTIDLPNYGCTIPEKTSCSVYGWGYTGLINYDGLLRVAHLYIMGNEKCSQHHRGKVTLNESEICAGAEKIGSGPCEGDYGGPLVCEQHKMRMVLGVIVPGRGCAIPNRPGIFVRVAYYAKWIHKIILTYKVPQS
t1/2 in rat serum [1] [days],HGF dimerization (human HGF),Distribution into brain regions ([2]; thirty minutes after carotid infusion of 3H-Dihexa with 14C-Inulin),Brain level relative to blood ([2]; thirty minutes after delivery) [× blood],Average 3H/14C from blood ([2]; thirty minutes after infusion),"Elimination (circulating) half-life t1/2 ([3]; IV 10 mg/kg, adult male Sprague Dawley rats, non-compartmental analysis, 10 mg/kg)",Excretion ([3]; urine),Time stable in the blood (Blood stability studies),Molecule,Water maze performance of aged rats vs untreated controls (aged rats),"Water maze latency to find the pedestal: reversal of scopolamine deficits (scopolamine treated rats; Dihexa ICV high dose (100 μmoles, 100 pmoles elsewhere in the source), 5 trials/day, 8 days)",Water maze latency to find the pedestal: reversal of scopolamine deficits (scopolamine treated rats; Dihexa ICV low dose 10 μmoles),Water maze latency to find the pedestal: reversal of scopolamine deficits (scopolamine treated rats; Dihexa IP 0.5 mg/kg (high dose)),"Water maze latency to find the pedestal: reversal of scopolamine deficits (scopolamine treated rats; Dihexa orally 2 mg/kg/day (high dose), 2 mg/kg/day)",Percent correlation of spines to Synapsin (hippocampal neurons) [%],Mean number of spines per 50 μm dendrite length (hippocampal neurons; 5 days)
0.229,blocks HGF dimerization,concentrated in multiple brain regions,40,1687,> 12 days and 12.68 days,excreted intact in the urine,over 5 hours,"CCCCCC(=O)N[C@@H](Cc1ccc(O)cc1)C(=O)N[C@H](C(=O)NCCCCCC(N)=O)[C@@H](C)CC [Dihexa, N-hexanoic-Tyr-Ile-(6)-aminohexanoic amide] (Hexanoyl-Tyr-Ile-[Ahx]-NH2)",preformed significantly better in the water maze than untreated rats; also recorded: performed significantly better than untreated controls; also recorded: significantly improved water maze performance,reversed scopolamine-dependent learning deficits; also recorded: completely overcome the scopolamine deficits,not 10 μmoles reversed scopolamine-dependent learning deficits,completely reverse the deficit seen with scopolamine,no different than controls; also recorded: completely overcome the scopolamine deficits; also recorded: completely reverse the deficit seen with scopolamine; also recorded: completely reverse the deficit produced by scopolamine,,
,,,,,,,,"HGF: Hepatocyte growth factor, recombinant, purchased from R&D Systems",,,,,,98,33 spines per 50 μm dendrite length
